Data taken from ChEMBL document CHEMBL1201862, “PubChem BioAssay data set” (2004).
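Protocol summary: plate cells (96-well), add compound at 5 concentrations, incubate 48 h, interpolate endpoints linearly. Abbreviation: GI50, concentration required for 50% inhibition of growth.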 Calls of active or inactive are those of the source. Cut-off read from the data, not from the text of the source: active = GI50 up to about 1.1 µM and inactive = higher.

Assays:
Assay in all cases: DTP human tumour cell line panel, 48 h
[1] = test system: SK-MEL-28
[2] = test system: CCRF-CEM
[3] = test system: OVCAR-3
[4] = test system: KM-20L2
[5] = test system: RPMI-8226
[6] = test system: A498
[7] = test system: HOP-92
[8] = test system: HT-29
[9] = test system: EKVX
[10] = test system: IGROV-1
[11] = test system: SF-268
[12] = test system: SK-MEL-2
[13] = test system: LOX IMVI
[14] = test system: HOP-62
[15] = test system: HCT-116
[16] = test system: DU-145
[17] = test system: PC-3
[18] = test system: NCI/ADR-RES
[19] = test system: MDA-MB-231
[20] = test system: MCF7

Row | Compound | GI50 [1] | GI50 [2] | GI50 [3] | GI50 [4] | GI50 [5] | GI50 [6] | GI50 [7] | GI50 [8] | GI50 [9] | GI50 [10] | GI50 [11] | GI50 [12] | GI50 [13] | GI50 [14] | GI50 [15] | GI50 [16] | GI50 [17] | GI50 [18] | GI50 [19] | GI50 [20]
1 | O=C(O)CCCNS(=O)(=O)c1ccc2ccccc2c1 | > 100 µM (inactive) | > 100 µM (inactive) | > 100 µM (inactive) | > 100 µM (inactive) | > 100 µM (inactive) | > 100 µM (inactive) | 97.7 µM (inactive) | > 100 µM (inactive) | > 100 µM (inactive) | > 100 µM (inactive) | > 100 µM (inactive) | > 100 µM (inactive) | > 100 µM (inactive) | – | – | – | – | – | – | –
2 | CC(C)N(C(=O)C12C3C4C5(C#N)C3C1(C#N)C5C42I)C(C)C (stereo not given) | > 100 µM (inactive) | > 39.9 µM (inactive) | > 100 µM (inactive) | > 100 µM (inactive) | > 46.1 µM (inactive) | > 100 µM (inactive) | > 100 µM (inactive) | > 100 µM (inactive) | > 100 µM (inactive) | > 100 µM (inactive) | > 100 µM (inactive) | > 100 µM (inactive) | > 49.5 µM (inactive) | > 100 µM (inactive) | 17.4 µM (inactive) | – | – | – | – | –
3 | O=C(CC1OC(O)C(Cl)=C1Cl)c1cccnc1 (stereo not given) | > 42.7 µM (inactive) | > 100 µM (inactive) | > 100 µM (inactive) | > 100 µM (inactive) | > 34.7 µM (inactive) | > 100 µM (inactive) | > 100 µM (inactive) | > 42.3 µM (inactive) | > 100 µM (inactive) | > 100 µM (inactive) | > 68.4 µM (inactive) | – | > 100 µM (inactive) | > 50.2 µM (inactive) | > 39.8 µM (inactive) | – | – | – | – | –
4 | O=C(c1cc2c(C(F)(F)F)onc2c2ccccc12)C(F)(F)F | 3.44 µM (inactive) | 0.34 µM (active) | 2.22 µM (inactive) | 1.22 µM (inactive) | 0.935 µM (active) | 12.7 µM (inactive) | 1.58 µM (inactive) | 3.7 µM (inactive) | 7.38 µM (inactive) | 2.74 µM (inactive) | 2.75 µM (inactive) | 3.4 µM (inactive) | 1.63 µM (inactive) | 2.44 µM (inactive) | 0.0452 µM (active) | – | – | – | – | –
5 | C[C@H](CCC(=O)NN)[C@H]1CC[C@H]2[C@@H]3CC[C@@H]4C[C@H](O)CC[C@]4(C)[C@H]3CC[C@]12C | > 74.8 µM (inactive) | 12.3 µM (inactive) | 32 µM (inactive) | – | 20.7 µM (inactive) | 79.3 µM (inactive) | > 86.5 µM (inactive) | 27.7 µM (inactive) | 43 µM (inactive) | 83.4 µM (inactive) | 65.3 µM (inactive) | > 88.5 µM (inactive) | 31.6 µM (inactive) | > 100 µM (inactive) | 41 µM (inactive) | > 50.8 µM (inactive) | 44.8 µM (inactive) | 64.1 µM (inactive) | 40.8 µM (inactive) | 31.7 µM (inactive)
6 | Cc1[nH]c2ccccc2c1C1Cc2ccccc2N1C(=O)C#Cc1ccc([N+](=O)[O-])cc1 (stereo not given) | > 100 µM (inactive) | 19.2 µM (inactive) | > 100 µM (inactive) | > 100 µM (inactive) | 76 µM (inactive) | > 100 µM (inactive) | – | > 100 µM (inactive) | > 100 µM (inactive) | > 100 µM (inactive) | > 100 µM (inactive) | – | > 100 µM (inactive) | > 100 µM (inactive) | > 100 µM (inactive) | – | – | – | – | –
7 | C[C@]12CC[C@H]3[C@@H](CCC4=CC(=O)CC[C@@H]43)[C@@H]1CC[C@@H]2OC1(O)C(=O)c2ccccc2C1=O | > 100 µM (inactive) | 31.4 µM (inactive) | 39.4 µM (inactive) | – | 26.2 µM (inactive) | 48.5 µM (inactive) | > 100 µM (inactive) | 35.1 µM (inactive) | 0.352 µM (active) | 69.7 µM (inactive) | 34.1 µM (inactive) | 75.9 µM (inactive) | 37.5 µM (inactive) | 36.6 µM (inactive) | 14.5 µM (inactive) | 16.5 µM (inactive) | 60.5 µM (inactive) | 63 µM (inactive) | 87.3 µM (inactive) | 30.8 µM (inactive)
8 | C=CCONC(=O)c1ccc(Cl)cc1 | > 100 µM (inactive) | > 100 µM (inactive) | – | > 100 µM (inactive) | > 100 µM (inactive) | > 100 µM (inactive) | > 100 µM (inactive) | > 100 µM (inactive) | > 100 µM (inactive) | > 100 µM (inactive) | > 100 µM (inactive) | > 100 µM (inactive) | > 100 µM (inactive) | > 100 µM (inactive) | > 100 µM (inactive) | – | – | – | – | –
9 | CN(C)C(=S)/N=c1\sn(C)/c(=N\C(=S)N(C)C)n1C | > 100 µM (inactive) | – | > 100 µM (inactive) | > 100 µM (inactive) | > 100 µM (inactive) | 65.6 µM (inactive) | > 100 µM (inactive) | 25.9 µM (inactive) | > 100 µM (inactive) | > 100 µM (inactive) | > 100 µM (inactive) | – | 45.1 µM (inactive) | > 100 µM (inactive) | > 100 µM (inactive) | – | – | – | – | –
10 | Cc1cc(C)c2c(=N)c3ccccc3n(CCCCCCn3c4ccccc4c(=N)c4c(C)cc(C)nc43)c2n1 | 1.28 µM (inactive) | 0.266 µM (active) | 1.66 µM (inactive) | – | 0.305 µM (active) | 1.73 µM (inactive) | 1.58 µM (inactive) | 0.462 µM (active) | 1.77 µM (inactive) | 1.44 µM (inactive) | 1.56 µM (inactive) | 1.66 µM (inactive) | 0.182 µM (active) | 0.598 µM (active) | 0.18 µM (active) | 1.74 µM (inactive) | 1.28 µM (inactive) | 1.42 µM (inactive) | 0.447 µM (active) | 0.435 µM (active)
11 | O=C1C2CN(Cc3ccccc3)CC1CN(CC1CC1)C2 | > 100 µM (inactive) | > 100 µM (inactive) | > 100 µM (inactive) | > 100 µM (inactive) | > 100 µM (inactive) | > 100 µM (inactive) | > 100 µM (inactive) | > 100 µM (inactive) | > 100 µM (inactive) | > 100 µM (inactive) | > 100 µM (inactive) | > 100 µM (inactive) | > 100 µM (inactive) | > 100 µM (inactive) | – | – | – | – | – | –
12 | CC(=O)OCCOCNC(=S)N/N=C/c1ccc([N+](=O)[O-])o1 | 98.4 µM (inactive) | 23 µM (inactive) | 33.6 µM (inactive) | 26.4 µM (inactive) | – | > 100 µM (inactive) | – | 30.3 µM (inactive) | > 100 µM (inactive) | > 100 µM (inactive) | 29.5 µM (inactive) | 44.1 µM (inactive) | 31.6 µM (inactive) | > 100 µM (inactive) | 40 µM (inactive) | – | – | – | – | –
13 | O=C1C(c2ccccc2)=C(c2ccccc2)C(c2ccc(CCCCCCc3ccc(C4=C(c5ccccc5)C(=O)C(c5ccccc5)=C4c4ccccc4)cc3)cc2)=C1c1ccccc1 | > 100 µM (inactive) | > 100 µM (inactive) | > 100 µM (inactive) | > 100 µM (inactive) | > 100 µM (inactive) | – | > 100 µM (inactive) | > 100 µM (inactive) | > 100 µM (inactive) | > 100 µM (inactive) | > 100 µM (inactive) | > 100 µM (inactive) | – | > 100 µM (inactive) | > 100 µM (inactive) | – | – | – | – | –
14 | COc1ccccc1NC(=O)C1=C(C)NC(C)=C(C(=O)Nc2ccccc2OC)C1c1ccc(C(C)C)cc1 | 80.5 µM (inactive) | – | > 100 µM (inactive) | 48.4 µM (inactive) | 7.38 µM (inactive) | > 100 µM (inactive) | 82.4 µM (inactive) | > 100 µM (inactive) | 33 µM (inactive) | > 100 µM (inactive) | > 100 µM (inactive) | > 100 µM (inactive) | > 100 µM (inactive) | > 100 µM (inactive) | 13.8 µM (inactive) | – | – | – | – | –
15 | Cc1nc(-n2nc(-c3ccccc3)cc2-c2ccccc2)sc1C(=O)CC(=O)C(=O)Nc1ccc(Cl)c(Cl)c1 | – | 41.3 µM (inactive) | 69.2 µM (inactive) | 45.8 µM (inactive) | 41.8 µM (inactive) | 40.7 µM (inactive) | – | 29.9 µM (inactive) | 15.1 µM (inactive) | > 100 µM (inactive) | 48.5 µM (inactive) | > 100 µM (inactive) | 71 µM (inactive) | > 100 µM (inactive) | 64.6 µM (inactive) | – | – | – | – | –
16 | CCc1cccc(C)c1NC(=O)C1=C(C)NC(C)=C(C(=O)Nc2c(C)cccc2CC)C1c1ccc2c(c1)OCO2 | 15.6 µM (inactive) | 18.8 µM (inactive) | 17.5 µM (inactive) | 23.9 µM (inactive) | 16.8 µM (inactive) | 11.3 µM (inactive) | 18.2 µM (inactive) | 20.8 µM (inactive) | 20.5 µM (inactive) | 24.7 µM (inactive) | 20.3 µM (inactive) | 15.1 µM (inactive) | 18.3 µM (inactive) | 20.7 µM (inactive) | – | – | – | – | – | –
17 | O=C1c2cc3c(cc2[C@@H]2NC4CCCC14O2)OCO3 (stereo not given in full) | > 100 µM (inactive) | > 100 µM (inactive) | > 100 µM (inactive) | > 100 µM (inactive) | – | > 100 µM (inactive) | > 100 µM (inactive) | > 100 µM (inactive) | > 100 µM (inactive) | > 100 µM (inactive) | > 100 µM (inactive) | > 100 µM (inactive) | – | > 100 µM (inactive) | > 100 µM (inactive) | – | – | – | – | –
18 | CS(=O)(=O)N(N(CCCl)S(=O)(=O)c1ccccc1)S(C)(=O)=O | > 100 µM (inactive) | > 100 µM (inactive) | > 100 µM (inactive) | > 100 µM (inactive) | > 100 µM (inactive) | – | > 100 µM (inactive) | > 100 µM (inactive) | > 100 µM (inactive) | – | 21.3 µM (inactive) | > 100 µM (inactive) | – | > 100 µM (inactive) | > 100 µM (inactive) | – | – | – | – | –
